Measurements taken from PubChem BioAssay AID2060887 (Molecular Pharmacology Branch, DTP, NCI, 2025).

System: 782815-120-R-J1-PDC complex spheroid viability
Experiment: Anticancer human tumor 782815-120-R-J1-PDC patient-derived colon adenocarcinoma cell line growth inhibition [RAS]
Settings: for IC50: curve of first compound; for viability, T/C: stronger effect = lower value; active = viability on the fitted dose curve at most 10% of control; inactive = the rest
Procedure, shortened: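 Tumour cells grown as complex spheroids with HUVEC endothelial cells and mesenchymal stem cells, treated with RAS pathway inhibitor combinations. Each agent spans half-log steps from near clinical Cmax, or 10 microM where Cmax is unknown.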

[1] = second compound 0.000949 µM, first compound 0.00316 µM
[2] = second compound 0.000949 µM, first compound 0.01 µM
[3] = second compound 0.000949 µM, first compound 0.0316 µM
[4] = second compound 0.000949 µM, first compound 0.1 µM
[5] = second compound 0.003 µM, first compound 0.00316 µM
[6] = second compound 0.003 µM, first compound 0.01 µM
[7] = second compound 0.003 µM, first compound 0.0316 µM
[8] = second compound 0.003 µM, first compound 0.1 µM
[9] = second compound 0.00949 µM, first compound 0.00316 µM
[10] = second compound 0.00949 µM, first compound 0.01 µM
[11] = second compound 0.00949 µM, first compound 0.0316 µM
[12] = second compound 0.00949 µM, first compound 0.1 µM
[13] = second compound 0.03 µM, first compound 0.00316 µM
[14] = second compound 0.03 µM, first compound 0.01 µM
[15] = second compound 0.03 µM, first compound 0.0316 µM
[16] = second compound 0.03 µM, first compound 0.1 µM
[17] = second compound 0.0949 µM, first compound 0.00316 µM
[18] = second compound 0.0949 µM, first compound 0.01 µM
[19] = second compound 0.0949 µM, first compound 0.0316 µM
[20] = second compound 0.0949 µM, first compound 0.1 µM
[21] = second compound 0.3 µM, first compound 0.00316 µM
[22] = second compound 0.3 µM, first compound 0.01 µM
[23] = second compound 0.3 µM, first compound 0.0316 µM
[24] = second compound 0.3 µM, first compound 0.1 µM
[25] = second compound 0.0316 µM, first compound 0.0316 µM
[26] = second compound 0.0316 µM, first compound 0.1 µM
[27] = second compound 0.0316 µM, first compound 0.316 µM
[28] = second compound 0.0316 µM, first compound 1 µM
[29] = second compound 0.0316 µM, first compound 3.16 µM
[30] = second compound 0.0316 µM, first compound 10 µM
[31] = second compound 0.1 µM, first compound 0.0316 µM
[32] = second compound 0.1 µM, first compound 0.1 µM
[33] = second compound 0.1 µM, first compound 0.316 µM
[34] = second compound 0.1 µM, first compound 1 µM
[35] = second compound 0.1 µM, first compound 3.16 µM
[36] = second compound 0.1 µM, first compound 10 µM
[37] = second compound 0.316 µM, first compound 0.0316 µM
[38] = second compound 0.316 µM, first compound 0.1 µM
[39] = second compound 0.316 µM, first compound 0.316 µM
[40] = second compound 0.316 µM, first compound 1 µM
[41] = second compound 0.316 µM, first compound 3.16 µM
[42] = second compound 0.316 µM, first compound 10 µM
[43] = second compound 1 µM, first compound 0.0316 µM
[44] = second compound 1 µM, first compound 0.1 µM
[45] = second compound 1 µM, first compound 0.316 µM
[46] = second compound 1 µM, first compound 1 µM
[47] = second compound 1 µM, first compound 3.16 µM
[48] = second compound 1 µM, first compound 10 µM
[49] = second compound 3.16 µM, first compound 0.0316 µM
[50] = second compound 3.16 µM, first compound 0.1 µM
[51] = second compound 3.16 µM, first compound 0.316 µM
[52] = second compound 3.16 µM, first compound 1 µM
[53] = second compound 3.16 µM, first compound 3.16 µM
[54] = second compound 3.16 µM, first compound 10 µM
[55] = second compound 10 µM, first compound 0.0316 µM
[56] = second compound 10 µM, first compound 0.1 µM
[57] = second compound 10 µM, first compound 0.316 µM
[58] = second compound 10 µM, first compound 1 µM
[59] = second compound 10 µM, first compound 3.16 µM
[60] = second compound 10 µM, first compound 10 µM
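Also: spheroids exposed to compounds for 7 days before reading.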
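For viability, T/C in this document: 100% = DMSO vehicle control viability.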

CC(C)n1nc(-c2ccc3oc(N)nc3c2)c2c(N)ncnc21 + CCn1c(-c2cc(N3CCN(C)CC3)cnc2C(C)OC)c2c3cc(ccc31)-c1csc(n1)CC(NC(=O)C1CC1C)C(=O)N1CCCC(N1)C(=O)OCC(C)(C)C2
inactive: viability, T/C (second compound 0.000949 µM, first compound 0.000316 µM) 79.2% | viability, T/C (second compound 0.000949 µM, first compound 0.001 µM) 71.7% | viability, T/C [1] 70.3% | viability, T/C [2] 71.4% | viability, T/C [3] 65.5% | viability, T/C [4] 65.9% | viability, T/C (second compound 0.003 µM, first compound 0.000316 µM) 64.2% | viability, T/C (second compound 0.003 µM, first compound 0.001 µM) 57.5% | viability, T/C [5] 59.6% | viability, T/C [6] 52.9% | viability, T/C [7] 53.2% | viability, T/C [8] 40.9% | viability, T/C (second compound 0.00949 µM, first compound 0.000316 µM) 36.3% | viability, T/C (second compound 0.00949 µM, first compound 0.001 µM) 34.2% | viability, T/C [9] 35.9% | viability, T/C [10] 29% | viability, T/C [11] 27.7% | viability, T/C [12] 23.7% | viability, T/C (second compound 0.03 µM, first compound 0.000316 µM) 19.4% | viability, T/C (second compound 0.03 µM, first compound 0.001 µM) 19.6% | viability, T/C [13] 20.6% | viability, T/C [14] 17% | viability, T/C [15] 14.6% | viability, T/C [16] 10.7% | viability, T/C (second compound 0.0949 µM, first compound 0.000316 µM) 15.4% | viability, T/C (second compound 0.0949 µM, first compound 0.001 µM) 16.2% | viability, T/C [17] 14.8% | viability, T/C [18] 14.2% | viability, T/C [19] 9.96% | viability, T/C (second compound 0.3 µM, first compound 0.000316 µM) 15.2% | viability, T/C (second compound 0.3 µM, first compound 0.001 µM) 15.5% | viability, T/C [21] 12.6% | viability, T/C [22] 12.4%
active: viability, T/C [20] 6.66% | viability, T/C [23] 8.16% | viability, T/C [24] 4.66%
> 100 nM: IC50 (second compound 0.000949 µM)
32.6 nM: IC50 (second compound 0.003 µM)
< 0.316 nM: IC50 (second compound 0.00949 µM) | IC50 (second compound 0.03 µM) | IC50 (second compound 0.0949 µM) | IC50 (second compound 0.3 µM)

C=CC(=O)Nc1cc(Nc2nccc(-c3cn(C)c4ccccc34)n2)c(OC)cc1N(C)CCN(C)C + CCn1c(-c2cc(N3CCN(C)CC3)cnc2C(C)OC)c2c3cc(ccc31)-c1csc(n1)CC(NC(=O)C1CC1C)C(=O)N1CCCC(N1)C(=O)OCC(C)(C)C2
< 3.16 nM: IC50 (second compound 0.00949 µM) | IC50 (second compound 0.03 µM) | IC50 (second compound 0.0949 µM) | IC50 (second compound 0.3 µM)
inactive: viability, T/C [1] 71.5% | viability, T/C [2] 71.2% | viability, T/C [3] 79% | viability, T/C [4] 74% | viability, T/C (second compound 0.000949 µM, first compound 0.316 µM) 76.4% | viability, T/C (second compound 0.000949 µM, first compound 1 µM) 68.6% | viability, T/C [5] 59.3% | viability, T/C [6] 60.3% | viability, T/C [7] 55.6% | viability, T/C [8] 55.7% | viability, T/C (second compound 0.003 µM, first compound 0.316 µM) 54.7% | viability, T/C (second compound 0.003 µM, first compound 1 µM) 47.9% | viability, T/C [9] 31.2% | viability, T/C [10] 35.6% | viability, T/C [11] 34.2% | viability, T/C [12] 29.6% | viability, T/C (second compound 0.00949 µM, first compound 0.316 µM) 28.3% | viability, T/C (second compound 0.00949 µM, first compound 1 µM) 27.8% | viability, T/C [13] 17.8% | viability, T/C [14] 23.9% | viability, T/C [15] 18.6% | viability, T/C [16] 17.5% | viability, T/C (second compound 0.03 µM, first compound 0.316 µM) 19.7% | viability, T/C (second compound 0.03 µM, first compound 1 µM) 18.2% | viability, T/C [17] 16.1% | viability, T/C [18] 16.6% | viability, T/C [19] 14.8% | viability, T/C [20] 16.2% | viability, T/C (second compound 0.0949 µM, first compound 0.316 µM) 15.1% | viability, T/C (second compound 0.0949 µM, first compound 1 µM) 19.5% | viability, T/C [21] 17.5% | viability, T/C [22] 16.6% | viability, T/C [23] 16.8% | viability, T/C [24] 12.5% | viability, T/C (second compound 0.3 µM, first compound 0.316 µM) 16.3% | viability, T/C (second compound 0.3 µM, first compound 1 µM) 18.8%
> 1000 nM: IC50 (second compound 0.000949 µM) | IC50 (second compound 0.003 µM)

CCC(CC)c1cc(NC2CCC(N)C2)n2nccc2n1 (stereo not drawn) + C#Cc1c(F)ccc2cc(O)cc(-c3ncc4c(N5CC6CCC(C5)N6)nc(OCC56CCCN5CC(F)C6)nc4c3F)c12
active: viability, T/C [30] 1.67% | viability, T/C [36] 1.65% | viability, T/C [42] 2.09% | viability, T/C [48] 1.52% | viability, T/C [54] 1.84% | viability, T/C [60] 1.27%
2560 nM: IC50 (second compound 3.16 µM)
2630 nM: IC50 (second compound 0.1 µM)
2390 nM: IC50 (second compound 1 µM)
2500 nM: IC50 (second compound 0.0316 µM)
2820 nM: IC50 (second compound 0.316 µM)
inactive: viability, T/C [25] 93.3% | viability, T/C [26] 90.7% | viability, T/C [27] 99.4% | viability, T/C [28] 100% | viability, T/C [29] 38.2% | viability, T/C [31] 99.2% | viability, T/C [32] 103% | viability, T/C [33] 96.9% | viability, T/C [34] 104% | viability, T/C [35] 40.3% | viability, T/C [37] 105% | viability, T/C [38] 109% | viability, T/C [39] 103% | viability, T/C [40] 111% | viability, T/C [41] 43.7% | viability, T/C [43] 96.3% | viability, T/C [44] 90.1% | viability, T/C [45] 101% | viability, T/C [46] 105% | viability, T/C [47] 34.4% | viability, T/C [49] 104% | viability, T/C [50] 95% | viability, T/C [51] 91.2% | viability, T/C [52] 99% | viability, T/C [53] 39.3% | viability, T/C [55] 106% | viability, T/C [56] 90.6% | viability, T/C [57] 92.2% | viability, T/C [58] 103% | viability, T/C [59] 33.7%
2360 nM: IC50 (second compound 10 µM)

CC1(O)CCCC1n1c(=O)c(C(F)F)cc2cnc(NC3CCN(S(C)(=O)=O)CC3)nc21 (stereo not drawn) + C#Cc1c(F)ccc2cc(O)cc(-c3ncc4c(N5CC6CCC(C5)N6)nc(OCC56CCCN5CC(F)C6)nc4c3F)c12
6050 nM: IC50 (second compound 0.0316 µM)
5350 nM: IC50 (second compound 0.316 µM)
5790 nM: IC50 (second compound 3.16 µM)
inactive: viability, T/C [25] 73.7% | viability, T/C [26] 74.5% | viability, T/C [27] 65.7% | viability, T/C [28] 76% | viability, T/C [29] 68.8% | viability, T/C [30] 35.1% | viability, T/C [31] 83.1% | viability, T/C [32] 75.2% | viability, T/C [33] 68.8% | viability, T/C [34] 62.8% | viability, T/C [35] 66.4% | viability, T/C [36] 32.6% | viability, T/C [37] 78.6% | viability, T/C [38] 79.7% | viability, T/C [39] 69.2% | viability, T/C [40] 69.2% | viability, T/C [41] 65.6% | viability, T/C [42] 34.4% | viability, T/C [43] 88.5% | viability, T/C [44] 77.7% | viability, T/C [45] 75.4% | viability, T/C [46] 69.5% | viability, T/C [47] 70.7% | viability, T/C [48] 28.6% | viability, T/C [49] 77.5% | viability, T/C [50] 67.4% | viability, T/C [51] 68.7% | viability, T/C [52] 71% | viability, T/C [53] 79.1% | viability, T/C [54] 29.5% | viability, T/C [55] 70.7% | viability, T/C [56] 65.8% | viability, T/C [57] 65.5% | viability, T/C [58] 67.3% | viability, T/C [59] 74.3% | viability, T/C [60] 19.5%
5290 nM: IC50 (second compound 1 µM)
4760 nM: IC50 (second compound 0.1 µM)
4900 nM: IC50 (second compound 10 µM)
